Reference: ChEMBL document CHEMBL5344474, “Molecular editing of NSC-666719 enabling discovery of benzodithiazinedioxide-guanidines as anticancer agents” (RSC Med Chem, 2024)

test system: MCF7; assay: Antiproliferative activity against human MCF7 cells incubated for 72 hrs by MTT assay; conditions: MCF7, 72 h

SMILES	IC50
Cc1cc2c(cc1Cl)SC(/N=C(/N)Nc1cnc3ccccc3c1)=NS2(=O)=O	2.3 µM
Cc1cc2c(cc1Cl)SC(/N=C(/N)Nc1ccnc3ccccc13)=NS2(=O)=O	3.1 µM
Cc1cc2c(cc1Cl)SC(/N=C(/N)Nc1cccc3cnccc13)=NS2(=O)=O	1.3 µM
Cc1cc2c(cc1Cl)SC(/N=C(/N)Nc1cnc3ccccn3c1=O)=NS2(=O)=O	1 µM
Cc1cc2c(cc1Cl)SC(/N=C(/N)Nc1ccc3nccnc3c1)=NS2(=O)=O	2.5 µM
COc1cc2nccc(N/C(N)=N\C3=NS(=O)(=O)c4cc(C)c(Cl)cc4S3)c2cc1OC	3.5 µM
Cc1cc2c(cc1Cl)SC(/N=C(/N)Nc1cccc3ncccc13)=NS2(=O)=O	3.6 µM
CC(=O)c1cn(C)c2ccc(N/C(N)=N\C3=NS(=O)(=O)c4cc(C)c(Cl)cc4S3)cc12	2.9 µM
COc1nc(N/C(N)=N\C2=NS(=O)(=O)c3cc(C)c(Cl)cc3S2)c2ccn(C)c2n1	2.5 µM
Cc1cc2c(cc1Cl)SC(/N=C(/N)Nc1ccc3ccccc3c1)=NS2(=O)=O	3.5 µM
Cc1cc2c(cc1Cl)SC(/N=C(/N)Nc1ccc3cc(O)ccc3c1)=NS2(=O)=O	3.2 µM
COc1ccc(N/C(N)=N\C2=NS(=O)(=O)c3cc(C)c(Cl)cc3S2)cc1	3.3 µM

Second part, the compound after the results:

IC50	SMILES
6.3 µM	Cc1cc(S(=O)(=O)Nc2nnc(Nc3ccccc3)[nH]2)c(S)cc1Cl
7.4 µM	Cc1cc(S(=O)(=O)Nc2nc(Nc3ccc(Cl)cc3)n[nH]2)c(S)cc1Cl
4.4 µM	Cc1cc(S(=O)(=O)Nc2nc(Nc3ccc4ccccc4c3)n[nH]2)c(S)cc1Cl
7.8 µM	COc1ccc(Nc2n[nH]c(NS(=O)(=O)c3cc(C)c(Cl)cc3S)n2)cc1
7.5 µM	Cc1cc(S(=O)(=O)Nc2nc(Nc3cccc4ccccc34)n[nH]2)c(S)cc1Cl
7.5 µM	Cc1cc(S(=O)(=O)Nc2nc(Nc3ccc4cc(O)ccc4c3)n[nH]2)c(S)cc1Cl
2.8 µM	Cc1cc(S(=O)(=O)Nc2nc(NC(=O)c3ccc4ccccc4c3)n[nH]2)c(S)cc1Cl
6.5 µM	COc1ccc(Nc2n[nH]c(NS(=O)(=O)c3cc(C)c(Cl)cc3S)n2)c(OC)c1OC
7.7 µM	COc1ccc2ccccc2c1Nc1n[nH]c(NS(=O)(=O)c2cc(C)c(Cl)cc2S)n1

test system: MDA-MB-231; assay: Antiproliferative activity against human MDA-MB-231 cells incubated for 72 hrs by MTT assay; conditions: MDA-MB-231, 72 h

SMILES	IC50
Cc1cc2c(cc1Cl)SC(/N=C(/N)Nc1cnc3ccccc3c1)=NS2(=O)=O	4.1 µM
Cc1cc2c(cc1Cl)SC(/N=C(/N)Nc1ccnc3ccccc13)=NS2(=O)=O	5.7 µM
Cc1cc2c(cc1Cl)SC(/N=C(/N)Nc1cccc3cnccc13)=NS2(=O)=O	2.6 µM
Cc1cc2c(cc1Cl)SC(/N=C(/N)Nc1cnc3ccccn3c1=O)=NS2(=O)=O	2.5 µM
Cc1cc2c(cc1Cl)SC(/N=C(/N)Nc1ccc3nccnc3c1)=NS2(=O)=O	4.1 µM
COc1cc2nccc(N/C(N)=N\C3=NS(=O)(=O)c4cc(C)c(Cl)cc4S3)c2cc1OC	6.1 µM
Cc1cc2c(cc1Cl)SC(/N=C(/N)Nc1cccc3ncccc13)=NS2(=O)=O	5.4 µM
CC(=O)c1cn(C)c2ccc(N/C(N)=N\C3=NS(=O)(=O)c4cc(C)c(Cl)cc4S3)cc12	5.2 µM
COc1nc(N/C(N)=N\C2=NS(=O)(=O)c3cc(C)c(Cl)cc3S2)c2ccn(C)c2n1	4 µM
Cc1cc2c(cc1Cl)SC(/N=C(/N)Nc1ccc3ccccc3c1)=NS2(=O)=O	5.8 µM
Cc1cc2c(cc1Cl)SC(/N=C(/N)Nc1ccc3cc(O)ccc3c1)=NS2(=O)=O	4.4 µM
COc1ccc(N/C(N)=N\C2=NS(=O)(=O)c3cc(C)c(Cl)cc3S2)cc1	5.4 µM

More lines, now with the values ahead:

IC50	SMILES
7 µM	Cc1cc(S(=O)(=O)Nc2nnc(Nc3ccccc3)[nH]2)c(S)cc1Cl
8.4 µM	Cc1cc(S(=O)(=O)Nc2nc(Nc3ccc(Cl)cc3)n[nH]2)c(S)cc1Cl
5.5 µM	Cc1cc(S(=O)(=O)Nc2nc(Nc3ccc4ccccc4c3)n[nH]2)c(S)cc1Cl
8.5 µM	COc1ccc(Nc2n[nH]c(NS(=O)(=O)c3cc(C)c(Cl)cc3S)n2)cc1
8.6 µM	Cc1cc(S(=O)(=O)Nc2nc(Nc3cccc4ccccc34)n[nH]2)c(S)cc1Cl
8.6 µM	Cc1cc(S(=O)(=O)Nc2nc(Nc3ccc4cc(O)ccc4c3)n[nH]2)c(S)cc1Cl
3.2 µM	Cc1cc(S(=O)(=O)Nc2nc(NC(=O)c3ccc4ccccc4c3)n[nH]2)c(S)cc1Cl
7.7 µM	COc1ccc(Nc2n[nH]c(NS(=O)(=O)c3cc(C)c(Cl)cc3S)n2)c(OC)c1OC
8.5 µM	COc1ccc2ccccc2c1Nc1n[nH]c(NS(=O)(=O)c2cc(C)c(Cl)cc2S)n1

test system: HCT-116; assay: Antiproliferative activity against human HCT-116 cells incubated for 72 hrs by MTT assay; conditions: HCT-116, 72 h

SMILES	IC50
Cc1cc2c(cc1Cl)SC(/N=C(/N)Nc1cccc3cnccc13)=NS2(=O)=O	3.2 µM
Cc1cc2c(cc1Cl)SC(/N=C(/N)Nc1cnc3ccccn3c1=O)=NS2(=O)=O	4 µM

Further lines, results first:

IC50	SMILES
4.9 µM	Cc1cc(S(=O)(=O)Nc2nc(Nc3ccc4ccccc4c3)n[nH]2)c(S)cc1Cl
4.1 µM	Cc1cc(S(=O)(=O)Nc2nc(NC(=O)c3ccc4ccccc4c3)n[nH]2)c(S)cc1Cl

test system: SCC-9; assay: Antiproliferative activity against human SCC-9 cells incubated for 72 hrs by MTT assay; conditions: SCC-9, 72 h

SMILES	IC50
Cc1cc(S(=O)(=O)Nc2nc(Nc3ccc4ccccc4c3)n[nH]2)c(S)cc1Cl	4 µM
Cc1cc2c(cc1Cl)SC(/N=C(/N)Nc1cccc3cnccc13)=NS2(=O)=O	1.2 µM
Cc1cc2c(cc1Cl)SC(/N=C(/N)Nc1cnc3ccccn3c1=O)=NS2(=O)=O	0.9 µM
Cc1cc(S(=O)(=O)Nc2nc(NC(=O)c3ccc4ccccc4c3)n[nH]2)c(S)cc1Cl	2.6 µM

test system: not listed separately; assay: Cytotoxicity against HEK293 cells incubated for 72 hrs by MTT assay; conditions: human

SMILES	IC50 at 72 h
Cc1cc2c(cc1Cl)SC(/N=C(/N)Nc1cccc3cnccc13)=NS2(=O)=O	72.2 µM
Cc1cc2c(cc1Cl)SC(/N=C(/N)Nc1cnc3ccccn3c1=O)=NS2(=O)=O	66.5 µM

test system: not listed separately; assay: Selectivity index, ratio of IC50 for HEK293 cells to IC50 for human MCF7 cells; conditions: HEK293 cells versus MCF7 cells

SMILES	selectivity ratio
Cc1cc(S(=O)(=O)Nc2nnc(Nc3ccccc3)[nH]2)c(S)cc1Cl	> 65
COc1ccc(Nc2n[nH]c(NS(=O)(=O)c3cc(C)c(Cl)cc3S)n2)cc1	> 65
Cc1cc(S(=O)(=O)Nc2nc(Nc3cccc4ccccc34)n[nH]2)c(S)cc1Cl	> 65
Cc1cc2c(cc1Cl)SC(/N=C(/N)Nc1cnc3ccccc3c1)=NS2(=O)=O	> 65
Cc1cc(S(=O)(=O)Nc2nc(Nc3ccc4cc(O)ccc4c3)n[nH]2)c(S)cc1Cl	> 65
Cc1cc2c(cc1Cl)SC(/N=C(/N)Nc1ccnc3ccccc13)=NS2(=O)=O	> 65
Cc1cc2c(cc1Cl)SC(/N=C(/N)Nc1cccc3cnccc13)=NS2(=O)=O	> 65
Cc1cc2c(cc1Cl)SC(/N=C(/N)Nc1cnc3ccccn3c1=O)=NS2(=O)=O	> 65
Cc1cc2c(cc1Cl)SC(/N=C(/N)Nc1ccc3nccnc3c1)=NS2(=O)=O	> 65
COc1cc2nccc(N/C(N)=N\C3=NS(=O)(=O)c4cc(C)c(Cl)cc4S3)c2cc1OC	> 65
Cc1cc(S(=O)(=O)Nc2nc(NC(=O)c3ccc4ccccc4c3)n[nH]2)c(S)cc1Cl	> 65
Cc1cc2c(cc1Cl)SC(/N=C(/N)Nc1cccc3ncccc13)=NS2(=O)=O	> 65
COc1ccc(Nc2n[nH]c(NS(=O)(=O)c3cc(C)c(Cl)cc3S)n2)c(OC)c1OC	> 65
CC(=O)c1cn(C)c2ccc(N/C(N)=N\C3=NS(=O)(=O)c4cc(C)c(Cl)cc4S3)cc12	> 65
COc1ccc2ccccc2c1Nc1n[nH]c(NS(=O)(=O)c2cc(C)c(Cl)cc2S)n1	> 65
COc1nc(N/C(N)=N\C2=NS(=O)(=O)c3cc(C)c(Cl)cc3S2)c2ccn(C)c2n1	> 65
Cc1cc2c(cc1Cl)SC(/N=C(/N)Nc1ccc3ccccc3c1)=NS2(=O)=O	> 65
Cc1cc2c(cc1Cl)SC(/N=C(/N)Nc1ccc3cc(O)ccc3c1)=NS2(=O)=O	> 65
COc1ccc(N/C(N)=N\C2=NS(=O)(=O)c3cc(C)c(Cl)cc3S2)cc1	> 65

test system: not listed separately; assay: Selectivity index, ratio of IC50 for HEK293 cells to IC50 for human MDA-MB-231 cells; conditions: HEK293 cells versus MDA-MB-231 cells

SMILES	selectivity ratio
Cc1cc(S(=O)(=O)Nc2nnc(Nc3ccccc3)[nH]2)c(S)cc1Cl	> 65
COc1ccc(Nc2n[nH]c(NS(=O)(=O)c3cc(C)c(Cl)cc3S)n2)cc1	> 65
Cc1cc(S(=O)(=O)Nc2nc(Nc3cccc4ccccc34)n[nH]2)c(S)cc1Cl	> 65
Cc1cc2c(cc1Cl)SC(/N=C(/N)Nc1cnc3ccccc3c1)=NS2(=O)=O	> 65
Cc1cc(S(=O)(=O)Nc2nc(Nc3ccc4cc(O)ccc4c3)n[nH]2)c(S)cc1Cl	> 65
Cc1cc2c(cc1Cl)SC(/N=C(/N)Nc1ccnc3ccccc13)=NS2(=O)=O	> 65
Cc1cc2c(cc1Cl)SC(/N=C(/N)Nc1cccc3cnccc13)=NS2(=O)=O	> 65
Cc1cc2c(cc1Cl)SC(/N=C(/N)Nc1cnc3ccccn3c1=O)=NS2(=O)=O	> 65
Cc1cc2c(cc1Cl)SC(/N=C(/N)Nc1ccc3nccnc3c1)=NS2(=O)=O	> 65
COc1cc2nccc(N/C(N)=N\C3=NS(=O)(=O)c4cc(C)c(Cl)cc4S3)c2cc1OC	> 65
Cc1cc(S(=O)(=O)Nc2nc(NC(=O)c3ccc4ccccc4c3)n[nH]2)c(S)cc1Cl	> 65
Cc1cc2c(cc1Cl)SC(/N=C(/N)Nc1cccc3ncccc13)=NS2(=O)=O	> 65
COc1ccc(Nc2n[nH]c(NS(=O)(=O)c3cc(C)c(Cl)cc3S)n2)c(OC)c1OC	> 65
CC(=O)c1cn(C)c2ccc(N/C(N)=N\C3=NS(=O)(=O)c4cc(C)c(Cl)cc4S3)cc12	> 65
COc1ccc2ccccc2c1Nc1n[nH]c(NS(=O)(=O)c2cc(C)c(Cl)cc2S)n1	> 65
COc1nc(N/C(N)=N\C2=NS(=O)(=O)c3cc(C)c(Cl)cc3S2)c2ccn(C)c2n1	> 65
Cc1cc2c(cc1Cl)SC(/N=C(/N)Nc1ccc3ccccc3c1)=NS2(=O)=O	> 65
Cc1cc2c(cc1Cl)SC(/N=C(/N)Nc1ccc3cc(O)ccc3c1)=NS2(=O)=O	> 65
COc1ccc(N/C(N)=N\C2=NS(=O)(=O)c3cc(C)c(Cl)cc3S2)cc1	> 65

test system: not listed separately; assay: Selectivity index, ratio of IC50 for HEK293 cells to IC50 for human HCT-116 cells; conditions: HEK293 cells versus HCT-116 cells

SMILES	selectivity ratio
Cc1cc(S(=O)(=O)Nc2nnc(Nc3ccccc3)[nH]2)c(S)cc1Cl	> 65
COc1ccc(Nc2n[nH]c(NS(=O)(=O)c3cc(C)c(Cl)cc3S)n2)cc1	> 65
Cc1cc(S(=O)(=O)Nc2nc(Nc3cccc4ccccc34)n[nH]2)c(S)cc1Cl	> 65
Cc1cc2c(cc1Cl)SC(/N=C(/N)Nc1cnc3ccccc3c1)=NS2(=O)=O	> 65
Cc1cc(S(=O)(=O)Nc2nc(Nc3ccc4cc(O)ccc4c3)n[nH]2)c(S)cc1Cl	> 65
Cc1cc2c(cc1Cl)SC(/N=C(/N)Nc1ccnc3ccccc13)=NS2(=O)=O	> 65
Cc1cc2c(cc1Cl)SC(/N=C(/N)Nc1cccc3cnccc13)=NS2(=O)=O	> 65
Cc1cc2c(cc1Cl)SC(/N=C(/N)Nc1cnc3ccccn3c1=O)=NS2(=O)=O	> 65
Cc1cc2c(cc1Cl)SC(/N=C(/N)Nc1ccc3nccnc3c1)=NS2(=O)=O	> 65
COc1cc2nccc(N/C(N)=N\C3=NS(=O)(=O)c4cc(C)c(Cl)cc4S3)c2cc1OC	> 65
Cc1cc(S(=O)(=O)Nc2nc(NC(=O)c3ccc4ccccc4c3)n[nH]2)c(S)cc1Cl	> 65
Cc1cc2c(cc1Cl)SC(/N=C(/N)Nc1cccc3ncccc13)=NS2(=O)=O	> 65
COc1ccc(Nc2n[nH]c(NS(=O)(=O)c3cc(C)c(Cl)cc3S)n2)c(OC)c1OC	> 65
CC(=O)c1cn(C)c2ccc(N/C(N)=N\C3=NS(=O)(=O)c4cc(C)c(Cl)cc4S3)cc12	> 65
COc1ccc2ccccc2c1Nc1n[nH]c(NS(=O)(=O)c2cc(C)c(Cl)cc2S)n1	> 65
COc1nc(N/C(N)=N\C2=NS(=O)(=O)c3cc(C)c(Cl)cc3S2)c2ccn(C)c2n1	> 65
Cc1cc2c(cc1Cl)SC(/N=C(/N)Nc1ccc3ccccc3c1)=NS2(=O)=O	> 65
Cc1cc2c(cc1Cl)SC(/N=C(/N)Nc1ccc3cc(O)ccc3c1)=NS2(=O)=O	> 65
COc1ccc(N/C(N)=N\C2=NS(=O)(=O)c3cc(C)c(Cl)cc3S2)cc1	> 65
